13 molecules from US8541363B2, “Pyruvamide compounds as inhibitors of dust mite group 1 peptidase allergen and their use” (St George's Hosptial Medical School, priority 2010, dated 2013) can be followed below.

The target in test [1] is Der p 1 (Dermatophagoides pteronyssinus (European house dust mite), UniProt P08176). Description: Der p 1 enzyme activity assay (FRET fluorogenic substrate). The class given is biochemical.
Test [2] concerns Brown Norway rats sensitized to HDM allergens. Description: Allergen challenge study in vivo (acute allergic bronchoconstriction). Also on record: species or system rat. Conditions: challenge 2 hours after intratracheal dosing (100 μL of a 40 μM solution), P<0.05, Mann-Whitney Rank Sum Test. The protocol: The studies were performed in male Brown Norway rats (approximate weight 350 g at time of allergen challenge) obtained from Harlan UK Ltd. Each animal was allocated a unique identification number after sensitisation, identified by a waterproof tail mark, and randomly assigned to a treatment group. All studies were conducted in accordance with the Animals (Scientific Procedures) Act 1986, with UK Home Office Guidance on the implementation of the Act and with all applicable Codes of Practice for the care and housing of laboratory animals.
A mixture of HDM allergens was harvested from a laboratory culture of Dermatophagoides pteronyssinus. Allergen dose was standardized according to the Der p 1 content of the mixture as determined by an ELISA measurement referenced against the IUIS standard for Der p 1. […]
On Day 21 of the sensitization and challenge protocol, rats were anaesthetised with pentobarbitone (100 mg/kg, i.p.) and ventilated via a tracheal cannula (approximately 7 mL/kg, 1 Hz) with a mixture of air and oxygen (50:50). […] Ventilation was monitored by a flow transducer (Fleisch, type 0000) in-line with the respiratory pump. […] From these measurements of flow and differential pressure, both airways resistance (RL) and dynamic compliance (Cdyn) were calculated for each respiratory cycle on a digital electronic respiratory analyser (PMS, Mumed Ltd, UK). […]

The mark [3] stands for this setting: Table 1, read-out: Der p 1 IC50.
The mark [4] stands for this setting: threshold stated in text, read-out: Der p 1 IC50.

Where two headings read alike, the source gives them in different places.

Chain of Der p 1 (P08176 99-320): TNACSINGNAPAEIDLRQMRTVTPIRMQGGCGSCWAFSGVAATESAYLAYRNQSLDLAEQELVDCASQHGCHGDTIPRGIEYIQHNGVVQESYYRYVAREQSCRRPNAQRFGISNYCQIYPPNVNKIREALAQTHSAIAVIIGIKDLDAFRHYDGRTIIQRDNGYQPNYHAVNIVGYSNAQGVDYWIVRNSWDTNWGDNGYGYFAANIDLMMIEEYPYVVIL

For the molecule `CC(C)[C@H](NC(=O)[C@H](C)NC(=O)[C@@H](NC(=O)c1ccccc1)C(C)(C)C)C(=O)C(=O)NC1CCCCC1` [PVA-026], the IC50 in test [1] (Der p 1 IC50) is < 20 nM; in test [1] (setting [3]), 14 nM. Besides, the “magnitude of second allergen challenge (change in airway resistance) compared to first challenge” value in test [2] is given as “significantly reduced”.

As to `CC(C)[C@H](NC(=O)[C@H](C)NC(=O)[C@@H](NC(=O)c1ccncc1)C(C)(C)C)C(=O)C(=O)NC1CCCCC1` [PVA-038], the IC50 was < 20 nM in test [1] (Der p 1 IC50) and 13.3 nM in test [1] (setting [3]). The “magnitude of second allergen challenge (change in airway resistance) compared to first challenge” value in test [2] is given as “significantly reduced”.

Regarding `CC(C)[C@H](NC(=O)[C@H](C)NC(=O)[C@@H](N1Cc2ccccc2C1=O)C(C)(C)C)C(=O)C(=O)NCc1ccc(S(N)(=O)=O)cc1` [PVA-206], in test [1] (setting [4]), the IC50 is < 20 nM.

`CC(C)[C@H](NC(=O)[C@H](C)NC(=O)[C@@H](N1Cc2ccccc2C1=O)C(C)(C)C)C(=O)C(=O)NCc1ccc(C(N)=O)cc1` [PVA-207]: in test [1] (setting [4]), the 50% inhibitory concentration (IC50) is < 20 nM.

Take `CNS(=O)(=O)c1ccc(CNC(=O)C(=O)[C@@H](NC(=O)[C@H](C)NC(=O)[C@@H](N2Cc3ccccc3C2=O)C(C)(C)C)C(C)C)cc1` [PVA-208]: the half-maximal inhibitory concentration (IC50) in test [1] (Der p 1 IC50) is < 20 nM.

Consider `CNC(=O)c1ccc(CNC(=O)C(=O)[C@@H](NC(=O)[C@H](C)NC(=O)[C@@H](N2Cc3ccccc3C2=O)C(C)(C)C)C(C)C)cc1` [PVA-209], for which the IC50 in test [1] (setting [4]) is < 20 nM.

With `CC(C)[C@H](NC(=O)[C@H](C)NC(=O)[C@@H](N1Cc2ccccc2C1=O)C(C)(C)C)C(=O)C(=O)NCc1ccc(CN(C)C)cc1` [PVA-210], in test [1] (setting [4]), the IC50 was < 20 nM.

In the case of `CC(C)[C@H](NC(=O)[C@H](C)NC(=O)[C@@H](N1Cc2ccccc2C1=O)C(C)(C)C)C(=O)C(=O)NCc1ccc(N2CCN(C)CC2)cc1` [PVA-211], the half-inhibitory concentration (IC50) in test [1] (setting [4]) is < 20 nM.

On to `CC(C)[C@H](NC(=O)[C@H](C)NC(=O)[C@@H](N1Cc2ccccc2C1=O)C(C)(C)C)C(=O)C(=O)NCC(=O)N1CCc2ccccc2C1` [PVA-212], for which, in test [1] (setting [4]), the half-maximal inhibitory concentration (IC50) is < 20 nM.

In the case of `CC(C)[C@H](NC(=O)[C@H](C)NC(=O)[C@@H](N1Cc2ccccc2C1=O)C(C)(C)C)C(=O)C(=O)NCc1ccc(N2CCN(C)CC2)nc1` [PVA-213], the half-maximal inhibitory concentration (IC50) in test [1] (setting [4]) was < 20 nM.

Turning to `CC(C)[C@H](NC(=O)[C@H](C)NC(=O)[C@@H](NC(=O)c1ccccc1)C12CC3CC(CC(C3)C1)C2)C(=O)C(=O)NCc1ccc(S(N)(=O)=O)cc1` [PVA-214], in test [1] (setting [4]), the IC50 is < 20 nM.

`CC(C)[C@H](NC(=O)[C@H](C)NC(=O)[C@@H](NC(=O)c1cccc2ccccc12)C(C)(C)C)C(=O)C(=O)NCc1ccc(S(N)(=O)=O)cc1` [PVA-215]: in test [1] (setting [4]), the half-inhibitory concentration (IC50) is < 20 nM.

Take `CC(C)[C@H](NC(=O)[C@H](C)NC(=O)[C@@H](NC(=O)C1CCN(C)CC1)C(C)(C)C)C(=O)C(=O)NCc1ccccc1` [PVA-216]: the IC50 in test [1] (setting [4]) is < 20 nM.

The term IC50 denotes the point on the concentration scale where inhibition reaches its midpoint.
